In test [1] the test system is Prolyl Hydroxylations in Human Skin Fibroblasts. The test is described as follows: Hydroxylation of proline residues in type I procollagen (Hyp/Pro). To be noted: for Hyp/Pro: 72 hr. The class given is cell-based. Here is the method: Culture of human skin fibroblasts derived from an apparently normal adult were grown to confluent densities in Dulbecco's modified Eagle's medium supplemented with 10% (v/v) fetal calf serum. Thereafter, the medium was replaced with medium supplemented with 0.5% dialyzed fetal calf serum. […] In some experiments, minoxodil was dissolved in 95% (v/v) ethanol; […]. Cultures treated with ethanol only served as the control.
(§1) During the last 6 hr of treatment, cultures were labeled with 50 μCi of L-[2,3-^3 H]proline (35 Ci/mmol) and 50 μCi of L[U-^14 C]lysine ([…]) in 4 ml of lysine-free medium supplemented with 100 μM ascorbic acid. At the end of the incubation period, the medium was removed and mixed with 1 mM each of EDTA, N-ethylmaleimide, and phenylmethylsulfonylfluoride, and the collagenous proteins were precipitated with 30% (NH4)2 SO4. The cell layer was scraped and extracted with 0.5 M acetic acid containing the protease inhibitors as above. The cell extract was neutralized, and the collagenous proteins were precipitated as above. The (NH4)2 SO4 precipitate from the medium and cell layer was separately dissolved in 0.1% SDS/10 mM Tris-HCl (pH 6.8), reduced with dithiothreitol, and analyzed by electrophoresis on 4% SDS-polyacrylamide gels. The bands corresponding to the proαl(I) and proα2(I) chains from the two fractions were pooled and hydrolyzed with 6 M HCl for 24 hr at 110° C. Proline, hydroxyproline, lysine, and hydroxylysine in the hydrolysate were separated by HPLC (Takimitsa et al, J. Dermatol. 16:37 (1989)), and their radioactivity was determined in a Beckman liquid scintillation counter. To isolate type I procollagen the precipitate from the medium and cell layer was separately dissolved in 25 mM Tris-HCl, pH 7.5, containing 2 M urea and 1 mM each of EDTA, N-ethylmaleimide, and phenylmethylsulfonylfluoride, then chromatographed on a DEAE-cellulose column (Freiberger et al, J. Invest. Dermatol. 75:425 (1980)). The procollagen isolated from the two fractions was pooled, hydrolyzed, and analyzed as above.

Test [2] relates to Lysyl Hydroxylations in Human Skin Fibroblasts. Put plainly: Hydroxylation of lysine residues in type I procollagen (Hyl/Lys). To be noted: for Hyl/Lys: 72 hr. The class given is cell-based. As for the experimental part:
Culture of human skin fibroblasts derived from an apparently normal adult were grown to confluent densities in Dulbecco's modified Eagle's medium supplemented with 10% (v/v) fetal calf serum. Thereafter, the medium was replaced with medium supplemented with 0.5% dialyzed fetal calf serum. The cultures were treated for 72 hr with 1 mM minoxidil, 3'- hydroxyminoxidil,or 4'-hydroxyminoxidil (Upjohn) dissolved in aqueous medium. In some experiments, minoxodil was dissolved in 95% (v/v) ethanol; […]. Cultures treated with ethanol only served as the control.
as §1

The mark [3] stands for this setting: 1 mM, gel electrophoresis (Table V).
The mark [4] stands for this setting: 1 mM, type I procollagen chains isolated by gel electrophoresis, mean ± range of two experiments (description table).

SMILES strings stand for the structures.

Regarding `Nc1cc(N2CCCCC2)nc(N)[n+]1[O-]` [Minoxidil], the Hyp/Pro is given as 0.92 ± .01 in test [1] (setting [3]); 0.92 ± 0.01 in test [1] (setting [4]); 0.91 ± .03 in test [1] (0.3 M, type I procollagen chains isolated by gel electrophoresis, mean ± range (Table IV)). Further, the activity at 1000 µM is 100% in test [1] (Homo sapiens, Skin fibroblast, 1 mM, 72 hr (Table V), read-out: ratio of hydroxyproline to proline, % control value) and 32% in test [2] (Homo sapiens, Skin fibroblast, 1 mM, 72 hr (Table V), read-out: ratio of hydroxylysine to lysine, percentage of control value). Besides, the “ratio of hydroxyproline to proline (in words)” value in test [1] (Table IV text) is “remained unaltered”. The Hyl/Lys in test [2] (setting [3]) and in test [2] (setting [4]) was 0.07 ± 0.02 in each case. The “ratio of hydroxylysine to lysine, % of control” value in test [2] (procollagen isolated by column chromatography, 4320 min) was determined as 50%. Also, in test [2] (procollagen isolated by gel chromatography (so in the source), 4320 min), the “ratio of hydroxylysine to lysine, % of control value” is on record as 27%.

The values are drawn from patent US5328913A, “Minoxidil analogs as inhibitors of cell proliferation and lysyl hydroxylase” (priority 1992, dated 1994).
